Results on eleven molecules are retold here after PubChem BioAssay (NCI).

Values joined by “and” are separate entries in the source; they are usually repeats but may differ in a detail not shown here. Equal values may be shown once.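 Protocol summary: plate cells (96-well), add compound at 5 concentrations, incubate 48 h, interpolate endpoints linearly. Here, GI50 denotes the concentration required for 50% inhibition of growth. TGI: concentration producing complete growth inhibition.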 Where only a bound is given, the exact number is not on record here.

What all share (experiment): inhibition of tumour cell growth, NCI panel, 48 h
Test [1] relates to CCRF-CEM leukemia.
For test [2], the system named is HL-60(TB) leukemia.
Test [3] deals with KM12 colon.
For test [4], the system named is M14 melanoma.
For test [5], the system named is MCF7 breast.
Test [6] deals with NCI-H23 lung.
For test [7], the system named is NCI-H522 lung.
Test [8] concerns OVCAR-5 ovarian.
Test [9] has as its system OVCAR-8 ovarian.
Test [10] deals with U251 CNS.

Turning to `CON=C1C[C@]2(C[C@@H]3C[C@@H](C/C=C(\C)C[C@@H](C)/C=C/C=C4\CO[C@@H]5[C@H](O)C(C)=C[C@@H](C(=O)O3)[C@]45O)O2)O[C@H](/C(C)=C/C(C)C)[C@H]1C`, the GI50 is 7650 nM in [1]; 2480 nM in [2]; 8100 nM in [3]; 16100 nM in test [4]; 15900 nM in [5]; 12.6 µM in test [6]. Moreover, the GI50 is 12000 nM in test [7], 18.1 µM in test [8], 16.3 µM in test [9] and 11300 nM in [10]. The TGI in test [1] was found to be 34.3 µM; in test [2], 5.92 µM; in test [3], 21.9 µM; in [4] it was 33.1 µM; in [5], 30 µM; in [6], 28.4 µM. The TGI in test [7] was 26.1 µM; in [8], 37.4 µM; in [9] it was 39.1 µM; in test [10], 24.3 µM.
As for `COc1cc(N2CCN(C(C)C)CC2)ccc1Nc1nc(Nc2ccc(F)cc2C(=O)NCC(O)CO)c2cc[nH]c2n1` (stereo unspecified), the GI50 in test [1] was 2650 nM; in [2], 1080 nM; in test [3], 10600 nM; in test [4], 12000 nM; in test [5], 276 nM; in test [6], 4.22 µM. Further, the GI50 was 4790 nM in test [7], 4.28 µM in test [8], 16.3 µM in [9] and 5220 nM in test [10]. In addition, the TGI in test [1] is greater than 25 µM; in [2], 13.6 µM; in [3], greater than 25 µM; in [4] it was greater than 25 µM; in test [5] it was greater than 25 µM; in [6] it was greater than 23.3 µM. In addition, the TGI in test [7], in test [8], in test [9] and in [10] was greater than 25 µM in each case.
With `[N-]=[N+]=NCCCn1c2c(c3ccc([N+](=O)[O-])cc3c1=O)C(=O)c1cc(I)ccc1-2`, the GI50 in test [1] was 416 nM; in [2], 3790 nM; in test [3], 18000 nM; in test [4], 3290 nM; in test [5] it was 586 nM; in test [6], 5.41 µM. For the same molecule, the GI50 in test [7] is 1680 nM; in test [8] it was 41.2 µM; in test [9], 11.3 µM; in [10], 2230 nM. Besides, the TGI was greater than 100 µM in test [1]; 26.3 µM in test [2]; greater than 100 µM in test [3]; 22.4 µM in [4]; greater than 100 µM in test [5]; 55.7 µM in test [6]. Further, the TGI in test [7] is 12.4 µM; in test [8], greater than 100 µM; in test [9], greater than 100 µM; in [10] it was 30.6 µM.
As to `C=C[C@H]1CN2CCc3c([nH]c4c([C@@H]5CCCN5C)c(O)ccc34)[C@@H]2C[C@@H]1C[C@H]1c2[nH]c3ccccc3c2CCN1C`, the GI50 in test [1] is 484 nM and 475 nM; in test [3] it was 1150 nM; in [4], 1250 nM and 211 nM. Also, the TGI in test [2] is 2.06 µM and 1.85 µM and 1.9 µM; in test [3] it was 2.61 µM and 2.99 µM; in test [4], 2.75 µM and 0.436 µM and 2.55 µM; in test [5] it was 3.66 µM and 4.3 µM; in test [6] it was 3.63 µM and 3.71 µM; in test [7] it was 3.66 µM. Further, the TGI in [8] is 3.29 µM and 3.31 µM and 3.39 µM; in test [9], 3.3 µM and 2.96 µM; in [10], 2.94 µM and 2.95 µM.
Take `CC1NC(C(=O)O)Cc2cc(O)c(O)cc21` (stereo unspecified): the TGI in [1], in test [2], in test [3], in test [4], in test [5] and in test [6] was greater than 100 µM each time. Also, the TGI in [7], in [8], in test [9] and in [10] was greater than 100 µM in each case.
For the molecule `CN(C)c1ccc(/C=C(\C#N)c2ccccc2)cc1`, the GI50 in test [1] is 332 nM and 553 nM and 595 nM; in test [2] it was 218 nM and 340 nM; in test [3], 307 nM and 425 nM and 437 nM; in test [4], 329 nM and 344 nM and 304 nM; in [5], 261 nM and 276 nM and 281 nM; in test [6], 0.957 µM and 1.33 µM and 0.76 µM. The GI50 in test [7] is 369 nM and 430 nM and 681 nM; in [8], 4.51 µM and 17.2 µM and 10.3 µM; in test [9], 0.61 µM and 2.52 µM and 2.65 µM; in test [10], 378 nM and 499 nM and 538 nM. For the same molecule, the TGI in [1] was 13.4 µM and > 100 µM; in test [2], 11.8 µM; in test [3], 21.8 µM and > 100 µM; in test [4], greater than 100 µM; in [5], greater than 100 µM; in test [6], greater than 100 µM. In addition, the TGI is greater than 100 µM in test [8]; greater than 100 µM in test [9]; 55.4 µM and > 100 µM and 91.5 µM in [10].
Turning to `CCCCCCCCCCCCNC(=O)N[C@H](C(=O)N[C@H]1/C=C/CCNC(=O)/C=C/[C@H](C)NC1=O)C(C)C`, the GI50 in [1] is 49.5 nM; in [2], 143 nM; in test [3] it was 22.2 nM; in test [4], 221 nM; in test [5], 57.7 nM; in test [6], 0.0513 µM. Also, the GI50 in [7] was 24.4 nM; in test [8] it was 0.0271 µM; in test [9], 0.463 µM; in test [10] it was 41.2 nM. The TGI was 5.13 µM in [1]; 13.3 µM in test [2]; 0.0519 µM in [3]; 4.6 µM in test [4]; 15.6 µM in [5]; 0.612 µM in [6]. Further, the TGI came to 0.0647 µM in [7], 0.114 µM in test [8], 4.19 µM in [9] and 0.209 µM in test [10].
As to `Cc1ccc(S(=O)(=O)OCC(=O)Nc2ccc(C(=O)O)c(O)c2)cc1`, the GI50 in test [1] was 13700 nM; in test [2] it was 26100 nM; in test [3], 73600 nM; in test [4], 28200 nM; in [5], 23900 nM; in test [6], 29.4 µM. The GI50 was 11900 nM in test [7], 46.5 µM in test [8], 30.3 µM in test [9] and 16300 nM in test [10]. Also, the TGI in test [1] was 69 µM; in test [2], 193 µM; in test [3], 199 µM; in test [4] it was 85 µM; in test [5] it was 121 µM; in test [6] it was 105 µM. Further, the TGI came to 34.6 µM in [7], 105 µM in test [8], 106 µM in test [9] and 34.5 µM in [10].
In the case of `CCNC(=O)Oc1ccc(/C(=C(\C)c2ccc(Cl)cc2)c2ccc(OCCN(CC)CC)cc2)cc1`, the GI50 in test [1] was 3380 nM; in test [2], 1790 nM; in test [3] it was 4220 nM; in [4] it was 1970 nM; in test [5], 1130 nM; in test [6], 7.92 µM. The GI50 was 13300 nM in test [7], 10.3 µM in test [8], 9.25 µM in test [9] and 4260 nM in [10]. The TGI in test [1] came out at 12.2 µM; in [2], 4.37 µM; in test [3], 15.5 µM; in test [4], 3.97 µM; in [5], 10.9 µM; in test [6], 22.1 µM. The TGI in [7] was determined as 28.1 µM; in test [8], 23.1 µM; in test [9], 29.1 µM; in test [10] it was 13.5 µM.
Take `CS(=O)(=O)O[C@H]1C(=O)N(c2cc3c4ccccc4ccc3c3ccccc23)[C@@H]1c1ccccn1`: the GI50 in [1] is 515 nM; in test [2] it was 309 nM; in test [3], 473 nM; in test [4] it was 317 nM; in test [5] it was 321 nM; in [6], 0.981 µM. Also, the GI50 in test [7] is 573 nM; in test [8], 0.711 µM; in test [9], 0.712 µM; in test [10], 685 nM. Moreover, the TGI in [1] is greater than 100 µM; in [2] it was greater than 100 µM; in test [3], greater than 100 µM; in [4], 5.23 µM; in test [5], greater than 100 µM; in [6], greater than 100 µM. In addition, the TGI in test [7], in test [8], in test [9] and in test [10] was greater than 100 µM each time.
As for `O=C(Nc1ccc(Oc2ccc(NC(=O)Nc3ccccc3Cl)cc2)cc1)Nc1ccccc1Cl`, the GI50 in [1] is 4720 nM; in test [2], 14800 nM; in [3], greater than 100000 nM; in test [4], greater than 44600 nM; in test [5], 8540 nM; in test [6] it was 3.61 µM. The GI50 in test [7] is 7910 nM; in test [8], 27.6 µM; in test [9], 6.83 µM; in test [10], 1710 nM. Also, the TGI was 28.8 µM in test [1]; 32.4 µM in [2]; greater than 100 µM in test [3]; greater than 100 µM in [4]; greater than 100 µM in [5]; 18.5 µM in test [6]. Also, the TGI is 42.6 µM in test [7], greater than 100 µM in [8], 23.6 µM in test [9] and 20.5 µM in [10].
